Experimental data from PubChem BioAssay AID1918996 (Molecular Pharmacology Branch, DTP, NCI, 2023).
pIC50: −log10 of the molar value.

System: 349418-098-R-PDC complex spheroid growth
Assay: Anticancer human tumor 349418-098-R-PDC patient-derived lung adenocarcinoma cell line growth inhibition [AhR]
Details: for pIC50: curve of first compound; for viability, T/C: stronger effect = lower value
Summary of the method: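 Agents were dosed in half-log steps down from roughly clinical Cmax, or from 10 microM where Cmax was unknown, alone and with AhR antagonists. Read-out: percent test/control growth of tumor spheroids containing HUVEC and MSC stromal cells.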

[1] = second compound 0.1 µM, first compound 0.0316 µM
[2] = second compound 0.1 µM, first compound 0.1 µM
[3] = second compound 0.1 µM, first compound 0.316 µM
[4] = second compound 0.1 µM, first compound 1 µM
[5] = second compound 0.316 µM, first compound 0.0316 µM
[6] = second compound 0.316 µM, first compound 0.1 µM
[7] = second compound 0.316 µM, first compound 0.316 µM
[8] = second compound 0.316 µM, first compound 1 µM
[9] = second compound 1 µM, first compound 0.0316 µM
[10] = second compound 1 µM, first compound 0.1 µM
[11] = second compound 1 µM, first compound 0.316 µM
[12] = second compound 1 µM, first compound 1 µM
[13] = second compound 3.16 µM, first compound 0.0316 µM
[14] = second compound 3.16 µM, first compound 0.1 µM
[15] = second compound 3.16 µM, first compound 0.316 µM
[16] = second compound 3.16 µM, first compound 1 µM
[17] = second compound 10 µM, first compound 0.0316 µM
[18] = second compound 10 µM, first compound 0.1 µM
[19] = second compound 10 µM, first compound 0.316 µM
[20] = second compound 10 µM, first compound 1 µM
[21] = second compound 0.1 µM, first compound 3.16 µM
[22] = second compound 0.1 µM, first compound 10 µM
[23] = second compound 0.316 µM, first compound 3.16 µM
[24] = second compound 0.316 µM, first compound 10 µM
[25] = second compound 1 µM, first compound 3.16 µM
[26] = second compound 1 µM, first compound 10 µM
[27] = second compound 3.16 µM, first compound 3.16 µM
[28] = second compound 3.16 µM, first compound 10 µM
[29] = second compound 10 µM, first compound 3.16 µM
[30] = second compound 10 µM, first compound 10 µM
[31] = second compound 0.1 µM, first compound 0.00949 µM
[32] = second compound 0.1 µM, first compound 0.03 µM
[33] = second compound 0.1 µM, first compound 0.0949 µM
[34] = second compound 0.1 µM, first compound 0.3 µM
[35] = second compound 0.316 µM, first compound 0.00949 µM
[36] = second compound 0.316 µM, first compound 0.03 µM
[37] = second compound 0.316 µM, first compound 0.0949 µM
[38] = second compound 0.316 µM, first compound 0.3 µM
[39] = second compound 1 µM, first compound 0.00949 µM
[40] = second compound 1 µM, first compound 0.03 µM
[41] = second compound 1 µM, first compound 0.0949 µM
[42] = second compound 1 µM, first compound 0.3 µM
[43] = second compound 3.16 µM, first compound 0.00949 µM
[44] = second compound 3.16 µM, first compound 0.03 µM
[45] = second compound 3.16 µM, first compound 0.0949 µM
[46] = second compound 3.16 µM, first compound 0.3 µM
[47] = second compound 10 µM, first compound 0.00949 µM
[48] = second compound 10 µM, first compound 0.03 µM
[49] = second compound 10 µM, first compound 0.0949 µM
[50] = second compound 10 µM, first compound 0.3 µM
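Further: spheroids exposed to agents for seven days before luminescence viability read.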
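Wherever viability, T/C is given: spheroids also contain HUVEC endothelial cells and human MSC stroma.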

For `CC1COCCN1c1cc(-c2ccnn2C)c2ccnc(-c3ccn[nH]3)c2n1` (stereo not given) + Cc1cncc(-c2nc(NCCc3c[nH]c4ccccc34)c3ncn(C(C)C)c3n2)c1, the pIC50 (second compound 0.1 µM) was 6.82, the pIC50 (second compound 0.316 µM) was 6.82 and the pIC50 (second compound 1 µM) was 7.00. The pIC50 (second compound 3.16 µM) was > 8.50, the pIC50 (second compound 10 µM) was > 8.50 and the viability, T/C (second compound 0.1 µM, first compound 0.00316 µM) was 105%. The viability, T/C (second compound 0.1 µM, first compound 0.01 µM) was 105%, the viability, T/C [1] was 99.7% and the viability, T/C [2] was 71.6%. For the same molecule, the viability, T/C [3] was 13.1%, the viability, T/C [4] was 7.48% and the viability, T/C (second compound 0.316 µM, first compound 0.00316 µM) was 90.9%. For the same molecule, the viability, T/C (second compound 0.316 µM, first compound 0.01 µM) was 92.4%, the viability, T/C [5] was 91.4% and the viability, T/C [6] was 68.5%. It also gave a viability, T/C [7] of 15.7%, a viability, T/C [8] of 7.2% and a viability, T/C (second compound 1 µM, first compound 0.00316 µM) of 74.1%. The viability, T/C (second compound 1 µM, first compound 0.01 µM) was 81.4%, the viability, T/C [9] was 81.5% and the viability, T/C [10] was 50.1%. It also gave a viability, T/C [11] of 13.2%, a viability, T/C [12] of 8.54% and a viability, T/C (second compound 3.16 µM, first compound 0.00316 µM) of 14.2%. The viability, T/C (second compound 3.16 µM, first compound 0.01 µM) was 15.1%, the viability, T/C [13] was 12.4% and the viability, T/C [14] was 7.18%. For the same molecule, the viability, T/C [15] was 6.8%, the viability, T/C [16] was 5.72% and the viability, T/C (second compound 10 µM, first compound 0.00316 µM) was 0.74%. It also gave a viability, T/C (second compound 10 µM, first compound 0.01 µM) of 0.66%, a viability, T/C [17] of 0.7% and a viability, T/C [18] of 0.73%. For the same molecule, the viability, T/C [19] was 0.69% and the viability, T/C [20] was 1.49%.
Work on `CC1COCCN1c1cc(C2(S(C)(=N)=O)CC2)nc(-c2ccnc3[nH]ccc23)n1` (stereo not given) + Cc1cncc(-c2nc(NCCc3c[nH]c4ccccc34)c3ncn(C(C)C)c3n2)c1 yielded a pIC50 (second compound 0.1 µM) of 5.27, a pIC50 (second compound 0.316 µM) of 5.38 and a pIC50 (second compound 1 µM) of 5.37. The pIC50 (second compound 3.16 µM) was > 7.50, the pIC50 (second compound 10 µM) was > 7.50 and the viability, T/C [1] was 90.9%. It also gave a viability, T/C [2] of 97%, a viability, T/C [3] of 93.9% and a viability, T/C [4] of 99.3%. It also gave a viability, T/C [21] of 75.3%, a viability, T/C [22] of 20% and a viability, T/C [5] of 90.1%. It also gave a viability, T/C [6] of 94.2%, a viability, T/C [7] of 95.5% and a viability, T/C [8] of 89.9%. The viability, T/C [23] was 61.4%, the viability, T/C [24] was 13.6% and the viability, T/C [9] was 78.7%. It also gave a viability, T/C [10] of 72.9%, a viability, T/C [11] of 85.2% and a viability, T/C [12] of 73.4%. The viability, T/C [25] was 61.9%, the viability, T/C [26] was 15.7% and the viability, T/C [13] was 15.7%. For the same molecule, the viability, T/C [14] was 15.9%, the viability, T/C [15] was 12.6% and the viability, T/C [16] was 12.1%. For the same molecule, the viability, T/C [27] was 8.67%, the viability, T/C [28] was 7.34% and the viability, T/C [17] was 2.06%. The viability, T/C [18] was 2.37%, the viability, T/C [19] was 2.46% and the viability, T/C [20] was 2.04%. The viability, T/C [29] was 2.07% and the viability, T/C [30] was 2.16%.
`COc1ccc([C@@H](O)c2cc(-c3ncnc4cc(N5CCOCC5)ccc34)c(F)cc2Cl)nn1` + Cc1cncc(-c2nc(NCCc3c[nH]c4ccccc34)c3ncn(C(C)C)c3n2)c1 showed a pIC50 (second compound 0.1 µM) of 5.40, a pIC50 (second compound 0.316 µM) of 5.40 and a pIC50 (second compound 1 µM) of 5.42. The pIC50 (second compound 3.16 µM) was > 7.50, the pIC50 (second compound 10 µM) was > 7.50 and the viability, T/C [1] was 100%. For the same molecule, the viability, T/C [2] was 101%, the viability, T/C [3] was 92.5% and the viability, T/C [4] was 88.8%. For the same molecule, the viability, T/C [21] was 58.1%, the viability, T/C [22] was 16.8% and the viability, T/C [5] was 103%. The viability, T/C [6] was 94.7%, the viability, T/C [7] was 89.9% and the viability, T/C [8] was 93.3%. It also gave a viability, T/C [23] of 58.8%, a viability, T/C [24] of 14.1% and a viability, T/C [9] of 81%. For the same molecule, the viability, T/C [10] was 79.7%, the viability, T/C [11] was 80.5% and the viability, T/C [12] was 68.2%. It also gave a viability, T/C [25] of 57.9%, a viability, T/C [26] of 19.4% and a viability, T/C [13] of 16.5%. The viability, T/C [14] was 16.7%, the viability, T/C [15] was 12.7% and the viability, T/C [16] was 12.5%. The viability, T/C [27] was 11.9%, the viability, T/C [28] was 9.7% and the viability, T/C [17] was 0.93%. For the same molecule, the viability, T/C [18] was 0.92%, the viability, T/C [19] was 1.03% and the viability, T/C [20] was 1.37%. The viability, T/C [29] was 1.91% and the viability, T/C [30] was 3.18%.
For `Nc1ncn(C2CC(O)C(CO)S2)c(=O)n1` (stereo not given) + Cc1cncc(-c2nc(NCCc3c[nH]c4ccccc34)c3ncn(C(C)C)c3n2)c1, the pIC50 (second compound 0.1 µM) was 6.88, the pIC50 (second compound 0.316 µM) was 6.88 and the pIC50 (second compound 1 µM) was > 9.02. The pIC50 (second compound 3.16 µM) was 7.12, the pIC50 (second compound 10 µM) was > 9.02 and the viability, T/C (second compound 0.1 µM, first compound 0.000949 µM) was 102%. It also gave a viability, T/C (second compound 0.1 µM, first compound 0.003 µM) of 96.7%, a viability, T/C [31] of 90.8% and a viability, T/C [32] of 74.5%. It also gave a viability, T/C [33] of 59.3%, a viability, T/C [34] of 30.7% and a viability, T/C (second compound 0.316 µM, first compound 0.000949 µM) of 88.6%. The viability, T/C (second compound 0.316 µM, first compound 0.003 µM) was 93.7%, the viability, T/C [35] was 83% and the viability, T/C [36] was 71.4%. The viability, T/C [37] was 59.1%, the viability, T/C [38] was 31.8% and the viability, T/C (second compound 1 µM, first compound 0.000949 µM) was 47.5%. For the same molecule, the viability, T/C (second compound 1 µM, first compound 0.003 µM) was 42.5%, the viability, T/C [39] was 38.9% and the viability, T/C [40] was 37.6%. The viability, T/C [41] was 30.4%, the viability, T/C [42] was 24% and the viability, T/C (second compound 3.16 µM, first compound 0.000949 µM) was 70%. The viability, T/C (second compound 3.16 µM, first compound 0.003 µM) was 86.3%, the viability, T/C [43] was 94.6% and the viability, T/C [44] was 73.6%. The viability, T/C [45] was 44.7%, the viability, T/C [46] was 30.6% and the viability, T/C (second compound 10 µM, first compound 0.000949 µM) was 2.25%. For the same molecule, the viability, T/C (second compound 10 µM, first compound 0.003 µM) was 2.66%, the viability, T/C [47] was 2.49% and the viability, T/C [48] was 2.15%. For the same molecule, the viability, T/C [49] was 2.02% and the viability, T/C [50] was 2.32%.
With `O=C(C=Cn1cnc(-c2cc(C(F)(F)F)cc(C(F)(F)F)c2)n1)NNc1cnccn1` + Cc1cncc(-c2nc(NCCc3c[nH]c4ccccc34)c3ncn(C(C)C)c3n2)c1 the pIC50 (second compound 0.1 µM) was 7.21, the pIC50 (second compound 0.316 µM) was 7.10 and the pIC50 (second compound 1 µM) was 7.30. For the same molecule, the pIC50 (second compound 3.16 µM) was > 8.02, the pIC50 (second compound 10 µM) was > 8.02 and the viability, T/C [31] was 109%. The viability, T/C [32] was 76.7%, the viability, T/C [33] was 34.4% and the viability, T/C [34] was 10.9%. For the same molecule, the viability, T/C (second compound 0.1 µM, first compound 0.949 µM) was 7.84%, the viability, T/C (second compound 0.1 µM, first compound 3 µM) was 4.75% and the viability, T/C [35] was 103%. The viability, T/C [36] was 89.4%, the viability, T/C [37] was 42.3% and the viability, T/C [38] was 11.7%. It also gave a viability, T/C (second compound 0.316 µM, first compound 0.949 µM) of 7.07%, a viability, T/C (second compound 0.316 µM, first compound 3 µM) of 4.9% and a viability, T/C [39] of 95.8%. The viability, T/C [40] was 69.8%, the viability, T/C [41] was 25.5% and the viability, T/C [42] was 9.9%. The viability, T/C (second compound 1 µM, first compound 0.949 µM) was 9.14%, the viability, T/C (second compound 1 µM, first compound 3 µM) was 5.61% and the viability, T/C [43] was 31.8%. The viability, T/C [44] was 20.6%, the viability, T/C [45] was 14.7% and the viability, T/C [46] was 8.17%. The viability, T/C (second compound 3.16 µM, first compound 0.949 µM) was 7.95%, the viability, T/C (second compound 3.16 µM, first compound 3 µM) was 5.5% and the viability, T/C [47] was 3.16%. The viability, T/C [48] was 2.76%, the viability, T/C [49] was 2.56% and the viability, T/C [50] was 2.42%. The viability, T/C (second compound 10 µM, first compound 0.949 µM) was 1.78% and the viability, T/C (second compound 10 µM, first compound 3 µM) was 1.96%.
